Values of other authors, collected in patent US20100086647A1, “FEED OR FOOD PRODUCTS COMPRISING FUNGAL MATERIAL” (MEDIMUSH AS, priority 2005, published 2010).

Columns and labels:
E. coli = details: postulated
C. jejuni = details: postulated
S. staphylococcus = details: in vitro
B. megaterium = details: in vitro
S. pyogenes = details: in vitro

| expression of cytochrome P450s (CYPs) (cytochrome P450s (CYPs)) | Molecule | effect on microorganism (E. coli) | effect on microorganism (C. jejuni) | antibacterial effect (S. staphylococcus) | antibacterial effect (B. megaterium) | antibacterial effect (S. pyogenes) |
| --- | --- | --- | --- | --- | --- | --- |
| – | C1SSCSSS1 [Lenthionine] | no effect | no effect | antibacterial | antibacterial | antibacterial |
| can suppress the expression | Lentinan | – | – | – | – | – |
